Like-named read-outs stand apart in the source and are kept apart here.
Experiments:
HCT 15 = experiment: Human tumour cell line panel, colon cancer HCT 15; type: cell-based; details: read-out: Colon cancer cells, IC50(μM) HCT 15
Procedure: (§1) In addition, both 5-fluorouracil and melphalan were evaluated towards 57 cell lines. […] MG MID is the average of the potencies of the compound to approximately 50 neoplastic cell lines.

HL 60 = experiment: Human tumour cell line panel, leukemic HL 60; type: cell-based
Procedure: as §1

[1] = system: human promyelocytic leukemia HL-60; experiment: Cytotoxicity CC50, trypan blue exclusion, HL-60
Procedure: (§2) In addition, the compounds were evaluated against human squamous cell carcinomas (HSC-2 and HSC-4) and human promyelocytic leukemia neoplasms (HL-60) and compared with normal cells, i.e. human gingival fibroblasts (HGF), human pulp cells (HPC) and human periodontal ligament fibroblasts (HPLF).
(§3) MTT stands for 3-(4,5-dimethylthiazol-2-yl)-2,5-diphenyltetrazolium bromide). The cells were incubated with varying concentrations of the compounds along with untreated cells for 24 h and the absorbance at 540 nm measured. In the case of the HL-60 assay, the trypan blue exclusion method was followed and cell viability was determined using a haemocytometer. The CC50 values were obtained from dose-response curves (Sakagami, H.; Satoh, K.; Ohata, H.; Takahashi, H.; Yoshida, H.; Iida, M.; Kuribayashi, N.; Sakagami, T.; Momose, K.; Takeda, M. Anticancer Res. 1996, 16, 2635-2644). The general methods used in culturing the cells employed in these cytotoxicity experiments have been described previously (Kawase, M.; Sakagami, H.; Motohashi, N.; Hauer, H.; Chatterjee, S. S.; Spengler, G.; Vigyikanne, A. V.; Molnár, A.; Molnár, J. In Vivo 2005, 19, 705-712; and Takeuchi, R.; Hoshijima, H.; Onuki, N.; Nagasaka, H.; Chowdhury, S. A.; Kawase, M.; Sakagami, H. Anticancer Res. 2005, 25, 4037-4042). In brief, the malignant cells were obtained from Professor Nagumo, Showa University, Japan. The HGF, HPC and HPLF cells were prepared from human periodontal tissue after obtaining informed consent according to the guidelines of Meikai University Ethics Committee, Japan (No. 0206). Since normal cells have a short lifespan, cells at the 3-7 population doubling time were used. With the exception of the HL-60 neoplasm, the cells were cultured in DMEM containing heat-inactivated FBS (10%) at 37° C. in a humidified carbon dioxide atmosphere and subcultured by trypsinization. The HL-60 cells were cultured in a similar fashion except that RPMI 1640 media was employed.

COLO 205 = experiment: Human tumour cell line panel, colon cancer COLO 205; type: cell-based
Procedure: as §1

HCT 116 = experiment: Human tumour cell line panel, colon cancer HCT 116; type: cell-based
Procedure: as §1

[2] = system: HSC-2, HSC-4 and HL-60 malignant cells; experiment: Average CC50 for malignant cells
Procedure: as §2, §3

KM 12 = experiment: Human tumour cell line panel, colon cancer KM 12; type: cell-based
Procedure: as §1

K 562 = experiment: Human tumour cell line panel, leukemic K 562; type: cell-based
Procedure: as §1

[3] = system: human squamous cell carcinomas HSC-4; experiment: Cytotoxicity CC50, MTT assay, HSC-4
Procedure: as §2, §3

[4] = system: human squamous cell carcinomas HSC-2; experiment: Cytotoxicity CC50, MTT assay, HSC-2
Procedure: as §2, §3

[5] = system: human gingival fibroblasts (HGF); experiment: Cytotoxicity CC50, MTT assay, normal HGF cells
Procedure: as §2, §3

SR = experiment: Human tumour cell line panel, leukemic SR; type: cell-based
Procedure: as §1

human tumour cell lines = experiment: Panel of human tumour cell lines, all cell lines (mean graph midpoint); type: cell-based
Procedure: A number of compounds of the invention were further assessed against numerous human malignant cell lines. An average of 49 cell lines from nine different neoplastic diseases, namely leukemia, melanoma, non-small cell lung, colon, central nervous system, ovarian, renal, prostate, and breast cancers were employed.
as §1

human pulp cells (HPC) = experiment: Cytotoxicity CC50, MTT assay, normal HPC cells
Procedure: as §2, §3

RPMI 8226 = experiment: Human tumour cell line panel, leukemic RPMI 8226; type: cell-based
Procedure: as §1

[6] = system: human periodontal ligament fibroblasts (HPLF); experiment: Cytotoxicity CC50, MTT assay, normal HPLF cells
Procedure: as §2, §3

SW 620 = experiment: Human tumour cell line panel, colon cancer SW 620; type: cell-based
Procedure: as §1

HCC 2998 = experiment: Human tumour cell line panel, colon cancer HCC 2998; type: cell-based
Procedure: as §1

[7] = system: murine L-5178 lymphoma cells transfected with the human MDR1 gene; experiment: MDR reversal, rhodamine 123 fluorescence activity ratio; details: FAR >1 indicates MDR reversal
Procedure: A solution of the test compound (2 mg/ml, 10 μl) in dimethylsulfoxide was added to aliquots of the cell suspension and incubated at room temperature for 10 minutes. […] The cells were washed twice and resuspended in PBS (pH 7.4) after which the fluorescence was measured using a Beckton Dickinson FACScan instrument. The fluorescence of the cells was measured in treated MDR cells (F1), untreated MDR cells (F2), treated parental cells (F3) […] were obtained from the following equation, viz (F1/F2)/(F3/F4).

[8] = 48 h; read-out: Leukemic cells, IC50(μM) HL 60
[9] = read-out: CC50(μM) HL-60, 24 h, trypan blue exclusion, average of two determinations
[10] = 48 h; read-out: Colon cancer cells, IC50(μM) COLO 205
[11] = 48 h; read-out: Colon cancer cells, IC50(μM) HCT 116
[12] = average CC50 for HSC-2, HSC-4 and HL-60 malignant cells
[13] = read-out: Colon cancer cells, IC50(μM) KM 12
[14] = 48 h; read-out: Leukemic cells, IC50(μM) K 562
[15] = read-out: CC50(μM) HSC-4, 24 h, MTT, average of two determinations
[16] = read-out: CC50(μM) HSC-2, 24 h, MTT, average of two determinations
[17] = read-out: CC50(μM) HGF, normal cells, 24 h, MTT
[18] = 48 h; read-out: Leukemic cells, IC50(μM) SR
[19] = mean graph midpoint, average of 49 (38-59) human tumour cell lines, 48 h incubation, read-out: All cell lines IC50
[20] = read-out: CC50(μM) HPC, normal cells, 24 h, MTT
[21] = 48 h; read-out: Leukemic cells, IC50(μM) RPMI 8226
[22] = read-out: CC50(μM) HPLF, normal cells, 24 h, MTT
[23] = 48 h; read-out: Colon cancer cells, IC50(μM) SW 620
[24] = 48 h; read-out: Colon cancer cells, IC50(μM) KM 12
[25] = 48 h; read-out: Colon cancer cells, IC50(μM) HCC 2998

Molecule | IC50 (HCT 15; 48 h) [µM] | IC50 (HL 60; [8]) [µM] | CC50 [1, 9] [µM] | IC50 (COLO 205; [10]) [µM] | IC50 (HCT 116; [11]) [µM] | CC50(μM) ave [2, 12] [µM] | IC50 (KM 12; [13]) [µM] | IC50 (K 562; [14]) [µM] | CC50 [3, 15] [µM] | CC50 [4, 16] [µM] | CC50 [5, 17] [µM] | IC50 (SR; [18]) [µM] | IC50 (human tumour cell lines; [19]) [µM] | CC50 (human pulp cells (HPC); [20]) [µM] | IC50 (RPMI 8226; [21]) [µM] | CC50 [6, 22] [µM] | IC50 (SW 620; [23]) [µM] | IC50 (HCC 2998; [25]) [µM] | also measured
3,5-bis(4-Methyl phenylmethylene)-1-[4-{2-(4-morpholinyl)ethoxy}phenylcarbonyl]-4-piperidone hydrochloride hemihydrate [Compound 6d] | 0.832 | 1.1 | 1.2 | 1.15 | 2.45 | 1.6 | 1.12 | 0.275 | 2 | 1.6 | 10 | 0.245 | < 0.708 | 49 | 0.115 | 12 | 1.02 |  | 
Cl.O=C1C(=Cc2ccc(Cl)cc2)CN(C(=O)c2ccc(OCCN3CCOCC3)cc2)CC1=Cc1ccc(Cl)cc1 [Compound 6b, 3,5-bis(4-Chlorophenylmethylene)-1-[4-{2-(4-morpholinyl)ethoxy}phenylcarbonyl-4-piperidone hydrochloride] | 2.19 | 5.5 |  |  | 7.25 |  |  | 6.76 |  |  |  |  | < 0.562 |  | 0.132 |  | 1.45 | < 0.005 | CC50 [1]: 36 µM; IC50 (KM 12; [24]): 2.29 µM; CC50 [3]: 18 µM; CC50 [4]: 71 µM; CC50 [5]: 400 µM; CC50 (human pulp cells (HPC)): > 400 µM; CC50 [6]: 360 µM
O=C1C(=Cc2ccccc2)CNCC1=Cc1ccccc1 [Compound 1a] | 0.631 | 0.363 |  | 1.55 | 0.182 |  |  | 0.49 |  |  |  | 0.209 | 1.62 |  | 0.275 |  | 0.575 | 2 | CC50 [1]: 1.5 µM; CC50(μM) ave [2]: 2.7 µM; IC50 (KM 12; [24]): 0.794 µM; FAR value 4 μg/ml ([7]; compound 4 μg/ml): 1.58; FAR value 40 μg/ml ([7]; compound 40 μg/ml): 2.00; CC50 [3]: 4.4 µM; CC50 [4]: 2.2 µM; CC50 [5]: 20 µM; CC50 (human pulp cells (HPC)): 38 µM; CC50 [6]: 24 µM
3,5-bis(4-Chlorophenylmethylene)-1-[4-(2-dimethylaminoethoxy)phenyl-carbonyl]-4-piperidone hydrochloride hemihydrate [Compound 3b] | 0.295 | 1.41 | 1.7 | 1.7 | 6.03 | 1.9 | 1.74 | 0.331 | 1.8 | 2.3 | 23 | 0.126 | 1.91 | 11 | 0.098 | 4.3 | 0.209 | 0.263 | 
1-[4-(2-Dimethylaminoethoxy)phenylcarbonyl]-3,5-bis(4-methylphenyl-methylene)-4-piperidone hydrochloride hemihydrate [Compound 3d] | 0.912 | 1.32 | 0.85 | 1.02 | 1.38 | 1.5 | 0.776 | 1.82 | 2.1 | 1.4 | 7.9 | 0.479 | 1.15 | 7.2 | 0.224 | 3.4 | 0.562 | 0.229 | 
N[C@@H](Cc1ccc(N(CCCl)CCCl)cc1)C(=O)O [Melphalan, reference compound] |  |  |  |  |  | 40.7 |  |  |  |  | > 200 |  |  | > 200 |  | > 200 |  |  | IC50 (HL 60; Homo sapiens, HL-60, 48 h, read-out: Leukemic cells, IC50(μM) HL 60): 2.04 µM; CC50 ([1]; Homo sapiens, HL-60, 24 h, read-out: CC50(μM) HL-60): 6 µM; IC50 (COLO 205; Homo sapiens, COLO 205, 48 h, read-out: Colon cancer cells, IC50(μM) COLO 205): 66.1 µM; IC50 (HCT 116; Homo sapiens, HCT-116, 48 h, read-out: Colon cancer cells, IC50(μM) HCT 116): 30.2 µM; IC50 (KM 12; Homo sapiens, KM12, 48 h, read-out: Colon cancer cells, IC50(μM) KM 12): 43.7 µM; IC50 (K 562; Homo sapiens, K562, 48 h, read-out: Leukemic cells, IC50(μM) K 562): 43.7 µM; CC50 ([3]; Homo sapiens, HSC-4, 24 h, read-out: CC50(μM) HSC-4): 81 µM; CC50 ([4]; Homo sapiens, HSC-2, 24 h, read-out: CC50(μM) HSC-2): 35 µM; IC50 (SR; Homo sapiens, SR, 48 h, read-out: Leukemic cells, IC50(μM) SR): 1.86 µM; IC50 (human tumour cell lines; Homo sapiens, 48 h, read-out: All cell lines IC50(μM)): 26.9 µM; IC50 (HCC 2998; Homo sapiens, HCC 2998, 48 h, read-out: Colon cancer cells, IC50(μM) HCC 2998): 41.7 µM; IC50 (RPMI 8226; Homo sapiens, RPMI-8226, 48 h, read-out: Leukemic cells, IC50(μM) RPMI 8226): 66.1 µM; IC50 (SW 620; Homo sapiens, SW-620, 48 h, read-out: Colon cancer cells, IC50(μM) SW 620): 38.9 µM
O=c1[nH]cc(F)c(=O)[nH]1 [5-Fluorouracil, 5-fluorouracil, reference compound] |  |  |  |  |  |  |  |  |  |  |  |  | > 29.5 |  |  |  |  |  | IC50 (HCT 15; Homo sapiens, HCT-15, 48 h): 6.61 µM; IC50 (HL 60; Homo sapiens, HL-60, 48 h; read-out: Leukemic cells, IC50(μM) HL 60): 85.1 µM; IC50 (COLO 205; Homo sapiens, COLO 205, 48 h; read-out: Colon cancer cells, IC50(μM) COLO 205): 3.39 µM; IC50 (HCT 116; Homo sapiens, HCT-116, 48 h; read-out: Colon cancer cells, IC50(μM) HCT 116): 2.04 µM; IC50 (KM 12; Homo sapiens, KM12, 48 h; read-out: Colon cancer cells, IC50(μM) KM 12): 7.94 µM; IC50 (K 562; Homo sapiens, K562, 48 h; read-out: Leukemic cells, IC50(μM) K 562): 126 µM; IC50 (SR; Homo sapiens, SR, 48 h; read-out: Leukemic cells, IC50(μM) SR): 60.3 µM; S.I. (selectivity index) (human tumour cell lines; ratio of the IC50 figures for the least and most sensitive cell lines): >4365; IC50 (HCC 2998; Homo sapiens, HCC 2998, 48 h; read-out: Colon cancer cells, IC50(μM) HCC 2998): 5.75 µM; IC50 (RPMI 8226; Homo sapiens, RPMI-8226, 48 h; read-out: Leukemic cells, IC50(μM) RPMI 8226): 3.55 µM; IC50 (SW 620; Homo sapiens, SW-620, 48 h; read-out: Colon cancer cells, IC50(μM) SW 620): 18.6 µM

— US7582655B2, “Antineoplastic compounds” (University of Saskatchewan, priority 2005, dated 2009)
